ChEMBL document CHEMBL5608218, “Identification of 6,9-dihydro-5H-pyrrolo[3,2-h]quinazolines as a new class of F508del-CFTR correctors for the treatment of cystic fibrosis” (Eur J Med Chem, 2024)
pEC50: −log10 of the molar value. Blank lines part the entries; values can stand above or below the molecule they belong to. Activity calls are given as the source filed them. The calls are words filed in the database; no cut-off is given here.

Key:
Type in all cases: cell-based
[1] = system: Cystic fibrosis transmembrane conductance regulator (Homo sapiens), P13569 [F508del]; experiment: (§1) Corrector activity at CFTR F508del mutant (unknown origin) expressed in human CFBE41o- cells co-expressing halide-sensitive yellow fluorescent protein assessed as increase in iodide influx at 1 to 10 uM preincubated with compound for 24 hrs followed by compound washout and measured after 30 mins of stimulation with forskolin/genistein by fluorescence microplate reader; details: dose 1-10 µM
[2] = system: Cystic fibrosis transmembrane conductance regulator (Homo sapiens), P13569 [F508del]; experiment: as §1, with “hrs in presence of VX-809” for “hrs”; details: filed as activator, dose 1-10 µM
[3] = target: T1, Cystic fibrosis transmembrane conductance regulator (Homo sapiens, UniProt P13569, F508DEL); experiment: as §1, with “influx” for “influx at 1 to 10 uM”, “hrs in presence of VX-809” for “hrs”
[4] = target: T1, Cystic fibrosis transmembrane conductance regulator; experiment: as §1, with “influx” for “influx at 1 to 10 uM”
[5] = system: Cystic fibrosis transmembrane conductance regulator (Homo sapiens), P13569 [F508del]; experiment: as §1, with “by measuring fold change” for “at 1 to 10 uM”, “hrs in presence of VX-809” for “hrs”, “reader relative to VX-809 alone” for “reader”; details: filed as activator
[6] = system: Cystic fibrosis transmembrane conductance regulator (Homo sapiens), P13569 [F508del]; experiment: as §1, with “at” for “at 1 to”, “hrs in presence of VX-445” for “hrs”
[7] = system: Cystic fibrosis transmembrane conductance regulator (Homo sapiens), P13569 [F508del]; experiment: as §1, with “at” for “at 1 to”, “hrs in presence of corr-4a” for “hrs”; details: filed as activator

Chain of Cystic fibrosis transmembrane conductance regulator (Homo sapiens), P13569 [F508del] (P13569 as listed by the source): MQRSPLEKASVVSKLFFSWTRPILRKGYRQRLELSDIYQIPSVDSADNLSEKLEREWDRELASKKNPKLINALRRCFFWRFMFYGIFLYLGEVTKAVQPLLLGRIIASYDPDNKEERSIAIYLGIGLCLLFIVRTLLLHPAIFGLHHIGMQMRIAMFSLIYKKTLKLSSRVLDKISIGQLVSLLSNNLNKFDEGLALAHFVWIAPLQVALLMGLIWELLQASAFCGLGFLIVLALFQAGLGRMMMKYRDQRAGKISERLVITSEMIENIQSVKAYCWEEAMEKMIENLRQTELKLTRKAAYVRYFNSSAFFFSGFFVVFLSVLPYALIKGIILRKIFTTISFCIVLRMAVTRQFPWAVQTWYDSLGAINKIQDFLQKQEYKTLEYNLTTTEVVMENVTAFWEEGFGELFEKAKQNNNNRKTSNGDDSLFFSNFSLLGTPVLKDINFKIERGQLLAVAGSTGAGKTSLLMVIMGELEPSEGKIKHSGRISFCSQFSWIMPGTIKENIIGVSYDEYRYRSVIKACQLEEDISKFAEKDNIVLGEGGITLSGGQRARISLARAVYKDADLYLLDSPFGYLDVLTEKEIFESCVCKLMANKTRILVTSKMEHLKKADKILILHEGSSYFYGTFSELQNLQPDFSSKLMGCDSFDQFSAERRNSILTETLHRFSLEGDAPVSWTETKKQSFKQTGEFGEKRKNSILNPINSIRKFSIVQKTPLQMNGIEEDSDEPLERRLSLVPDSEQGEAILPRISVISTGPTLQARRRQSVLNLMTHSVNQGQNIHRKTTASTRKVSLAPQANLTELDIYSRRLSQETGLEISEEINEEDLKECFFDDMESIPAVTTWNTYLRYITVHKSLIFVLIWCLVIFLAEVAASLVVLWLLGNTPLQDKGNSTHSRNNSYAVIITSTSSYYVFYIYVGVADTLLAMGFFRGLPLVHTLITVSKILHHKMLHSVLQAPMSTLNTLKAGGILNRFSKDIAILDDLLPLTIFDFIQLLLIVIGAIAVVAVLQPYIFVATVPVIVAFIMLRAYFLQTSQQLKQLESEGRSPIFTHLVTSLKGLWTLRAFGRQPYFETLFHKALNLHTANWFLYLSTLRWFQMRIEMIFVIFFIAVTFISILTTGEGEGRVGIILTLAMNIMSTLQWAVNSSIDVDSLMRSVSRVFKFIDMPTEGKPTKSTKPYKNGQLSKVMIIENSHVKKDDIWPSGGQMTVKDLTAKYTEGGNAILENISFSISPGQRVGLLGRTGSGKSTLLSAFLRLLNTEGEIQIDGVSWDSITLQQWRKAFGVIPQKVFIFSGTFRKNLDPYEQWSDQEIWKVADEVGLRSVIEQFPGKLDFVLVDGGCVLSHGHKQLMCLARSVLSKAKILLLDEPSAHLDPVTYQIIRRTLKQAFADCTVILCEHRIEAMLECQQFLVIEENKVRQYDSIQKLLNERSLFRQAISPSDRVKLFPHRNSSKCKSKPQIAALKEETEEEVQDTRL
T1 sequence (P13569 as listed by the source): as above

Activity [2]: Active
Activity [1]: inactive
Structure (SMILES): CCOC(=O)c1c(Br)c2c(n1Cc1ccc(Br)cc1)-c1nc(NS(=O)(=O)c3ccccc3)ncc1CC2

Activity [2]: Active
Activity ([1]; filed as activator): Active
Structure (SMILES): CCOC(=O)c1c(Br)c2c(n1Cc1ccc(C)c(C)c1)-c1nc(NS(=O)(=O)c3ccccc3)ncc1CC2

Activity [2]: Active
Structure (SMILES): Cc1cccc(Cn2c(C(=O)OC(C)C)c(Br)c3c2-c2nc(NS(=O)(=O)c4ccccc4)ncc2CC3)c1

Activity [2]: Active
pEC50 [3]: 5.73
pEC50 [4]: 5.50
fold change (FC) [5]: 2.1
Activity [6]: inactive
Activity [7]: Active
Structure (SMILES): CCOC(=O)c1c(Cl)c2c(n1Cc1cccc(C)c1)-c1nc(NS(=O)(=O)c3ccccc3)ncc1CC2

Activity [2]: Active
Structure (SMILES): CCOC(=O)c1cc2c(n1Cc1cccc(C)c1)-c1nc(NS(=O)(=O)c3ccccc3)ncc1CC2

Activity [1]: inactive
Structure (SMILES): CCOC(=O)c1c(Br)c2c(n1Cc1ccc(C)cc1)-c1nc(NS(=O)(=O)c3ccccc3)ncc1CC2

Activity [2]: Active
pEC50 [3]: 5.67
pEC50 [4]: 5.51
fold change (FC) [5]: 2.3
Activity [6]: inactive
Activity ([1]; filed as activator): Active
Activity [7]: Active
Structure (SMILES): CCOC(=O)c1c(Br)c2c(n1Cc1cccc(Br)c1)-c1nc(NS(=O)(=O)c3ccccc3)ncc1CC2

Activity [2]: Active
Structure (SMILES): CCOC(=O)c1c(Br)c2c(n1Cc1cccc(C)c1)-c1nc(NS(=O)(=O)c3ccccc3)ncc1CC2

Further lines, the molecule ahead of its results:

Structure (SMILES): CCOC(=O)c1c(Br)c2c(n1Cc1ccc(F)cc1)-c1nc(NS(=O)(=O)c3ccccc3)ncc1CC2
Activity [1]: inactive

Structure (SMILES): CCOC(=O)c1cc2c(n1Cc1ccc(F)c(Br)c1)-c1nc(NS(=O)(=O)c3ccccc3)ncc1CC2
Activity [2]: Active
Activity ([1]; filed as activator): Active

Structure (SMILES): CCOC(=O)c1c(Br)c2c(n1CC1CC1)-c1nc(NS(=O)(=O)c3ccccc3)ncc1CC2
Activity [2]: Active
Activity [1]: inactive

Structure (SMILES): CCOC(=O)c1cc2c(n1Cc1cccc(Br)c1)-c1nc(NS(=O)(=O)c3ccccc3)ncc1CC2
Activity [1]: inactive

Structure (SMILES): CCOC(=O)c1c(Br)c2c(n1Cc1cccc(C)c1)-c1[nH]c(=O)c(S(=O)(=O)c3ccccc3)cc1CC2
pEC50 [3]: 6.35
pEC50 [4]: 6.12
fold change (FC) [5]: 2.4
Activity [6]: inactive
Activity [7]: Active

Structure (SMILES): CCOC(=O)c1cc2c(n1Cc1ccc(Br)cc1)-c1nc(NS(=O)(=O)c3ccccc3)ncc1CC2
Activity [1]: inactive

Structure (SMILES): CCOC(=O)c1c(Br)c2c(n1Cc1ccc(F)c(Br)c1)-c1nc(NS(=O)(=O)c3ccccc3)ncc1CC2
Activity [2]: Active
Activity ([1]; filed as activator): Active

Structure (SMILES): CCOC(=O)c1cc2c(n1CC1CC1)-c1nc(NS(=O)(=O)c3ccccc3)ncc1CC2
Activity [1]: inactive

Structure (SMILES): CCOC(=O)c1cc2c(n1Cc1ccc(C)cc1)-c1nc(NS(=O)(=O)c3ccccc3)ncc1CC2
Activity [1]: inactive
